Columns and labels:
SOCE in HEPM cells = test: SOCE by Mn quenching of Fura-2 in HEPM cells; assay type: cell-based, human
Experimental: (§1) Manganese (Mn^2+) is known to be able to permeate into cells via store-operated Ca channels (SOCs), but is impervious to surface membrane extrusion processes or SR uptake by Ca pumps. […] Briefly, to measure the Mn^2+ influx rate through the SOC machinery, thapsigargin (TG), or C/R, was applied to cultured cells or C2C12 myotubes to induce SR Ca depletion in 0 mM extracellular CaCa ([CaCa]o), then 0.5 mM Mn^2+ was added to the extracellular solution. The quenching of Fura-2 fluorescence by Mn^2+ was measured at the Ca-independent excitation wavelength of Fura-2 (360 nm). The decay of Fura-2 fluorescence upon Mn^2+ addition was expressed as percent decrease in Fura-2 fluorescence per unit time (the initial fluorescence is set equal to 100%). For all measurements of SOCE by Mn^2+ quenching, the maximally quenched fluorescence signal was established at the end of the experiment by lysing the cells with 1% Triton, and set equal to 0% fluorescence.

SOCE in C2C12 myotubes = test: SOCE by Mn quenching of Fura-2 in C2C12 myotubes; assay type: cell-based, mouse
Experimental: HEPM cells were loaded with 10 μM Fura-2 AM (Invitrogen, Carlsbad, Calif.) for 45 min at 37° C. and allowed to de-esterify for 15 min at 25° C. Cells were then harvested and re-suspended in balanced salt solution (BSS) containing (in mM): 140 NaCl, 2.8 KCl, 2 CaCl2, 2 MgCl2, 10 HEPES, pH 7.2. 2.5×10^6 cells were transferred into the cuvette system of a PTI spectrofluorometer (Photon Technology International, Princeton, N.J.) and the changes in [Ca]i were measured as changes in the ratio of Fura-2 fluorescence at excitation wavelength of 350 nm (F350) and 380 nm (F380), following exposure to various concentrations of thapsigargin, ionomycin or caffeine and ryanodine (C/R). For measurement in 0.5 mM EGTA, cells were centrifuged and re-suspended in BSS without CaCl2, and 0.5 mM EGTA was added immediately before recordings. […] All experiments were conducted at 25±2° C.
as §1

[1] = tested on: human embryonic palatal mesenchymal (HEPM) cells; test: Intracellular Ca store release in HEPM cells (Fura-2 ratio, PTI cuvette); assay type: cell-based; details: for Mobilization of Ca from endoplasmic reticulum (ER) stores: HEPM cells loaded with Fura-2
Experimental: HEPM cells were loaded with 10 μM Fura-2 AM (Invitrogen, Carlsbad, Calif.) for 45 min at 37° C. and allowed to de-esterify for 15 min at 25° C. Cells were then harvested and re-suspended in balanced salt solution (BSS) containing (in mM): 140 NaCl, 2.8 KCl, 2 CaCl2, 2 MgCl2, 10 HEPES, pH 7.2. 2.5×10^6 cells were transferred into the cuvette system of a PTI spectrofluorometer (Photon Technology International, Princeton, N.J.) and the changes in [Ca]i were measured as changes in the ratio of Fura-2 fluorescence at excitation wavelength of 350 nm (F350) and 380 nm (F380), following exposure to various concentrations of thapsigargin, ionomycin or caffeine and ryanodine (C/R). For measurement in 0.5 mM EGTA, cells were centrifuged and re-suspended in BSS without CaCl2, and 0.5 mM EGTA was added immediately before recordings. Measurement of Ca in individual C2C12 myotubes were performed as described before (Shin, D. W. et al. 2003. J. Biol. Chem. 278:3286-3292). All experiments were conducted at 25±2° C.

SOCE in NRP-154 cells = details: 10 μM 2-APB, NRP-Con and NRP-Bax cells, TG-depleted
Experimental: The role of SOCE in Ca signaling in NRP-154 cells was examined. […] Following ER Ca depletion (200 s treatment), 0.5 mM MnCl2 was added into cuvettes containing 1×10^6 NRP-154 cells loaded with Fura-2. The quenching of Fura-2 fluorescence by the entry of Mn^2+ provided a quantitative assay of SOCE. Specifically, the slope of reduction of Fura-2 fluorescence with time reflected the degree of SOCE activation.

Orai1 = target: T1, Orai1 (Homo sapiens, UniProt Q96D31); test: Co-immunoprecipitation of P311 with Orai1 in CHO cell lysates; assay type: binding; details: CHO lysates expressing GFP-myc-Orai1; anti-myc and anti-P311
T1 construct: expressed in transfected cells; host or cells: CHO cells (transient transfection, lysate 36 h after transfection)
T1 sequence (Q96D31 whole entry, species assumed): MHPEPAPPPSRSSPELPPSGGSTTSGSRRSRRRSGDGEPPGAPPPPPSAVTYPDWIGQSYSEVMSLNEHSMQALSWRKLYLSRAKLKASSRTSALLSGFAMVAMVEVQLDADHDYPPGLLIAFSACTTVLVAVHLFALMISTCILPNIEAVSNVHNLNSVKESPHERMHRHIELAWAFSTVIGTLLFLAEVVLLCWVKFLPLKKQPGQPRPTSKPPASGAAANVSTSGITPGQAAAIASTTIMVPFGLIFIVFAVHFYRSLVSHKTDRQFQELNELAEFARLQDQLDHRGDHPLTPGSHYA
Experimental: (§2) Next, the interaction of P311 with SOCE molecular machinery was examined experimentally. The interaction of P311 with known components of SOCE, such as STIM1 and Orai1, was studied. A GFP-myc-Orai1 plasmid and the mammalian expression plasmid containing the human STIM1 cDNA (OriGene, Inc.) were used. The plasmids were transfected into CHO cells and 36 hours after transfection, total cell lysates from CHO cells transiently expressing GFP-myc-Orai1 were incubated with either a polyclonal antibody against P311, or an anti-myc monoclonal antibody, with normal rabbit IgG serving as the control. […] Similar results were obtained when co-IP assays were repeated using reversible cross-linker DSP and different detergents in cell lysis buffer, including Triton X-100, NP-40 and CHAPS.

STIM1 = target: T2, STIM1 (Homo sapiens, UniProt Q13586); test: Co-immunoprecipitation of P311 with STIM1 in CHO cell lysates; assay type: binding; details: anti-P311 and anti-STIM1
T2 construct: host or cells: CHO cells (transient transfection)
T2 sequence (Q13586 23-685): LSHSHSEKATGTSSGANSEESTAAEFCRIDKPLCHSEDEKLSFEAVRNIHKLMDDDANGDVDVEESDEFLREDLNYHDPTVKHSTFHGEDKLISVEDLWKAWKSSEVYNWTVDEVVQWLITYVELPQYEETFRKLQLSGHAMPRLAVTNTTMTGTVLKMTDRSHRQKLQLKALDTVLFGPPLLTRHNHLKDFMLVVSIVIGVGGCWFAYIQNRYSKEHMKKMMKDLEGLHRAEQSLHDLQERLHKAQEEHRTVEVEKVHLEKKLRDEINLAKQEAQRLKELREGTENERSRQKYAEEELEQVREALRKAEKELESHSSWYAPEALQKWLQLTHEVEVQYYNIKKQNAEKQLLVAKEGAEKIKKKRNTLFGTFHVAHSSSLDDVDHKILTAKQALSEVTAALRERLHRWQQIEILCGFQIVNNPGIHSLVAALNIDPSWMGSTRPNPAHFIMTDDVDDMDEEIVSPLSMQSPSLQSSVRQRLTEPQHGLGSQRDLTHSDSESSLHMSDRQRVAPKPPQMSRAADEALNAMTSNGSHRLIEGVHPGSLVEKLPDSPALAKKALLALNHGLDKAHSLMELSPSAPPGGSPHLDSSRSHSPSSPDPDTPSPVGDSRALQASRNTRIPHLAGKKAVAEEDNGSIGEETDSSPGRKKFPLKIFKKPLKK
Experimental: as §2

[2] = Solubility of recombinant P311 expressed in E. coli; assay type: physicochemical; details: E. coli lysate, a portion of the overexpressed protein
Experimental: Using standard recombinant DNA technology, the full-length P311 protein was cloned into a T7-based expression plasmid with a 6× His-tag at either the amino-terminus (pET15b, Novagen) or the carboxy-terminus (pET21b, Novagen) and as a fusion protein with glutathione S-transferase (GST) in plasmid pGEX-2T (Pharmacia). In addition, the untagged P311 was cloned into a T7-based bacterial expression vector pG5 (Alexander, P. et al. 1992. Biochemistry 31:3597-3603). The bacterial host is grown for 12-14 hours at room temperature or for 4 hours at 37° C. after induction with 0.2 mM IPTG. Robust expression for the amino-terminal His6-tagged P311 protein […] was observed; the amino-terminal His6-tagged P311 protein was soluble. The soluble fraction of the His6-tagged P311 protein in the E. coli lysate was purified over a Ni-NTA agarose column. The protein was eluted by 250 mM immidazole and further purified by […] chromatography (Source-15S, Pharmacia) and gel-filtration chromatography (Superdex-200, Pharmacia). The P311 protein was purified to greater than 80% homogeneity as judged on SDS-PAGE. The concentration of P311 was determined by spectroscopic measurement at 280 nm.

C/C=C(/C)C(=O)O[C@H]1C(C)=C2[C@H]([C@@H]1OC(=O)CCCCCCC)[C@@](C)(OC(C)=O)C[C@H](OC(=O)CCC)[C@@]1(O)[C@H]2OC(=O)[C@@]1(C)O [thapsigargin]
Activation of SOCE following Ca store depletion (SOCE in HEPM cells): rapid activation of SOCE

C1CCc2nnnn2CC1 [PTZ, pentylenetetrazol]
Effect on SOCE in shRNA-treated myotubes (SOCE in C2C12 myotubes; C2C12 myotubes transfected with shRNA against P311): absent
SR Ca filling status (SOCE in C2C12 myotubes; C2C12 myotubes treated with PTZ): without affecting the SR Ca filling status
Activation of SOCE (Mn entry) (SOCE in C2C12 myotubes; C2C12 myotubes, 20 mM PTZ, no SR Ca depletion): induced the activation of SOCE

[K+] [potassium]
Mobilization of Ca from endoplasmic reticulum (ER) stores [1]: not responsive

C[C@H](CCC(=O)O)C[C@H](C)C[C@H](C)C(=O)/C=C(\O)[C@H](C)C[C@H](C)C/C=C/[C@@H](C)[C@@H](O)[C@@H](C)[C@@H](O)C[C@@H]1CC[C@@](C)([C@H]2CC[C@@](C)([C@@H](C)O)O2)O1 [ionomycin]
Activation of SOCE following Ca store depletion (SOCE in HEPM cells): rapid activation of SOCE
Mobilization of Ca from endoplasmic reticulum (ER) stores [1]: reveals a large store of Ca available for release

NCCOB(c1ccccc1)c1ccccc1 [2-APB, 2-aminoethoxydiphenyl borate]
Effect on PTZ-triggered Mn quenching of Fura-2 fluorescence (SOCE in C2C12 myotubes; C2C12 myotubes): inhibited
Effect on TG-initiated Mn entry through SOCE (SOCE in C2C12 myotubes; C2C12 myotubes, 2-APB 20 μM): blocked
Effect on SOCE (Mn quenching of Fura-2) (SOCE in NRP-154 cells): inhibited SOCE

Nc1ncnc2c1ncn2[C@@H]1O[C@H](COP(=O)(O)OP(=O)(O)OP(=O)(O)O)[C@@H](O)[C@H]1O [ATP, adenosine triphosphate]
Ca release on ATP stimulation in LPS-treated cells ([1]; ATP 1 or 3 mM, LPS-treated HEPM cells): no effect
Mobilization of Ca from endoplasmic reticulum (ER) stores [1]: not responsive

B1: P311: 68 amino acid, 8 kDa cytosolic protein (SEQ ID NO: 1 human, SEQ ID NO: 10 mouse) regulating SOCE (protein)
chain: MVYYPGLLVWVSQEPFLYKEMEGSLTKGRLPVPKEVNRKKLEEARAASMTPPGSHELCFPNISYL
Co-immunoprecipitation with Orai1 (Orai1): physical interaction between P311 and Orai1
Co-immunoprecipitation with STIM1 (STIM1): could not immunoprecipitation

B2: His6-tagged P311: full-length P311 with amino-terminal 6x His-tag expressed in E. coli (protein, UniProt Q16612 1-68, looked up)
chain: MVYYPELFVWVSQEPFPNKDMEGRLPKGRLPVPKEVNRKKNDETNAASLTPLGSSELRSPRISYLHFF
modifications: full-length N-terminal His6 tag
notes: full-length P311 with amino-terminal 6x His-tag expressed in E. coli
Solubility of overexpressed protein [2]: soluble

Reference: patent US8071533B2, “Compositions and methods for modulating store-operated calcium entry” (University of Medicine and Dentistry of New Jersey, priority 2006, dated 2011)
